Test system: mouse primary hepatocytes
Test: Immunoblot of AMPK signaling in primary hepatocytes
Assay type: cell-based
Protocol: Mouse hepatocytes were isolated by collagenase perfusion as previously described ([47]). Hepatocytes were seeded in medium Eagle-199 (MEM-199) (#41150, Thermo Fisher Scientific) containing penicillin G (100 U/ml), streptomycin (100 μg/ml), and 10% (v/v) fetal bovine serum (FBS). Hepatocytes were left for attachment (3 to 4 hours) and serum-starved overnight at 37°C with 5% CO2 in MEM-199 supplemented with penicillin G (100 U/ml), streptomycin (100 μg/ml), 10 nM insulin, and 100 nM dexamethasone. […] Cells were then harvested in 0.5 ml of phosphate-buffered saline (PBS), transferred into 1 ml of 40% KOH and 2 ml of methanol followed by 1-hour incubation at 80°C. Lipids were […] by acidifying the samples in 37% HCl and extracted with petroleum ether. Extracts were allowed to evaporate to dryness and then dissolved in Ultima Gold scintillation fluid for determination of [^14C]-acetate incorporation into lipids.
Following compound treatment, the cells were washed with room temperature PBS and lysed on ice with the addition of lysis buffer [50 mM tris-HCl (pH 7.5), 150 mM NaCl, 1 mM EDTA, 1 mM EGTA, 0.27 M sucrose, 1% w/v Triton X-100, 20 mM glycerol-2 phosphate disodium, 50 mM NaF, and 5 mM Na4P2O7.10 H2O] containing proteases and phosphatase inhibitors [0.5 mM phenylmethylsulfonyl fluoride (PMSF), 1 mM benzamidine HCl, leupeptin (1 μg/ml), pepstatin A (1 μg/ml), 1 μM microcystin-LR, 1 mM Na3VO4, and 1 mM DTT]. Lysates were centrifuged at 10,000g, 4°C for 10 min, and protein concentration of the supernatant was determined with the Pierce Bradford Protein Assay Kit (Thermo Fisher Scientific, #23200) and read on the Hidex Plate Reader (software version 0.5.64.0). Samples were prepared in Laemmli sample buffer (tris 200 mM, 8% SDS, EDTA 2 mM, and 40% glycerol) supplemented with 10% DTT and boiled for 5 min at 100°C. Ten micrograms of protein per sample was run on a Criterion tris-glycine polyacrylamide gel (Bio-Rad, #5678095) and transferred to a nitrocellulose membrane. For cell signaling experiments in HEK293 cells, the samples were run on a Criterion TGX stain-free precast gel (Bio-Rad, catalog no. 5678085) with transfer to a polyvinylidene difluoride membrane performed in Bio-Rad Criterion blotter (#1704071) using tris-glycine transfer buffer (Bio-Rad, #1610734) following the manufacturer’s instructions. […]

[1] = in the presence of MK-8722 (10 μM)

SMILES | levels of pACC1, pRaptor, or pAMPK (5 μM, with or without MK-8722) | concentration giving full inhibition of ACC1 phosphorylation [1] | concentration giving full inhibition of Raptor phosphorylation [1] | increased pThr172AMPK levels (with or without MK-8722 (10 μM))
CC1=C(C#N)C(c2ccc3c(c2)c(NC(=O)c2ccccc2C)nn3C)C(C#N)=C(C)N1 [BAY-974, N-[5-(3,5-dicyano-2,6-dimethyl-1,4-dihydropyridin-4-yl)-1-methylindazol-3-yl]-2-methylbenzamide] | no effect | – | – | –
CCc1ccccc1C(=O)Nc1n[nH]c2c(C)c(F)c(C3C(C#N)=C(C)N(C)C(C)=C3C#N)cc12 [BAY-3827, N-[5-(3,5-dicyano-1,2,6-trimethyl-4H-pyridin-4-yl)-6-fluoro-7-methyl-1H-indazol-3-yl]-2-ethylbenzamide] | – | 5 µM | 2.5 µM | only significant under MK-8722–treated conditions at 5 μM

From publication PMC12372887, “Mechanism and cellular actions of the potent AMPK inhibitor BAY-3827” (Science Advances, 2025)
